From patent publication US20240124409A1, “GUAIANOLIDE SESQUITERPENE LACTONE DERIVATIVES AND PHARMACEUTICAL USE THEREOF” (NANJING UNIVERSITY OF CHINESE MEDICINE, priority 2021, published 2024)

Experiments:
[1] = tested on: mouse acute liver injury model; test: Mouse acute liver injury model (CCl4); type: in vivo, C57BL/6 mice; conditions: for Acta2 mRNA expression / Col1a1 mRNA expression / Tgfb1 mRNA expression: liver; for ALT / AST: serum, 3 days
Experimental: The mice were randomly divided into 8 groups, one of which was randomly selected as the normal group, and the other 7 groups were the model group, the parent drug 1 (0.4 and 4 μmol/kg), the hydrochloride 22 (4 μmol/kg), and the fumarate 23 (0.4 and 4 μmol/kg) groups, respectively, with 6 mice in each group. In addition to the normal group injected with 10 mL olive oil/kg, the other mice were injected intraperitoneally with 0.5 mL CCl4+9.5 mL olive oil/kg weight, i.e., the ratio of CCl4 to olive oil was 1:19. […] The mice in the normal group and model group were administered intragastrically the same volume of the solvent 0.5% CMC-Na.
1 h after the last administration, blood was collected from the venous plexus of fundus oculi, stood at room temperature for 2 h, and centrifuged at 3000 rpm for 20 min. The serum was aspirated, aliquoted, and frozen at −70° C. for subsequent use. After blood collection, the mice were sacrificed by cervical dislocation, and the abdominal cavity was opened. The livers were taken out, and rinsed twice with pre-cooled PBS. The liver left lobe tissues of the mice were cut, and fixed with 4% paraformaldehyde for 24-48 h. The remaining tissues were frozen at −70° C. for subsequent use.
μL of each sample was taken for experiments. The levels of AST and ALT in the serum of mice were detected according to the operation manual. The absorbance value was detected at the wavelength of 510 nm by a microplate reader, and the sample concentration (U/L) was calculated according to the standard curve.
The extraction method of total RNA from tissues, cDNA synthesis and the PCR amplification method are the same as those in Example 4.

[2] = tested on: mouse acute kidney injury models; test: Mouse acute kidney injury model (folic acid); type: in vivo, C57BL/6 mice; set-up: Havcr1 mRNA expression / Ngal mRNA expression / Tnf mRNA expression / Il1 mRNA expression / Il6 mRNA expression / α-Sma mRNA expression / Col1a1 mRNA expression / Tgfb1 mRNA expression: scale not given here; BUN (urea level in serum): unit not given here; conditions: for Scr (creatinine level in serum): in µmol/L (unit assumed); for Col1a1 mRNA expression / Havcr1 mRNA expression / Il1 mRNA expression / Il6 mRNA expression / Ngal mRNA expression / Tgfb1 mRNA expression / Tnf mRNA expression / α-Sma mRNA expression: kidney
Experimental: Acute kidney injury: The mice were randomly divided into 7 groups, one of which was randomly selected as the normal group, and the other 6 groups were the model group, the parent drug 1 (0.4 and 4 μmol/kg), the hydrochloride 22 (4 μmol/kg), and the fumarate 23 (0.4 and 4 μmol/kg) groups, respectively, with 6 mice in each group. In addition to the mice in the normal group, other mice were injected intraperitoneally with folic acid dissolved in 0.9% NaHCO3 solution (250 mg/kg) to establish mouse acute kidney injury models. 1 h before model establishment, the parent drug 1 (0.4 and 4 μmol/kg), the hydrochloride 22 (4 μmol/kg) and the fumarate 23 (0.4 and 4 μmol/kg) were administered intragastrically for 3 consecutive days. The mice in the normal group and model group were administered intragastrically the same volume of the solvent 0.5% CMC-Na.
1 h after the last administration, blood was collected from the venous plexus of fundus oculi, stood at room temperature for 2 h, and centrifuged at 3000 rpm for 20 min. The serum was aspirated, aliquoted, and frozen at −70° C. for subsequent use. After blood collection, the mice were sacrificed by cervical dislocation, and the abdominal cavity was opened. The kidneys were taken out, rinsed twice with pre-cooled PBS after the perirenal fats and capsules were peeled off, and then fixed with 4% paraformaldehyde for 24-48 h, embedded in paraffin and stained with HE. The remaining tissues were frozen at −70° C. for subsequent use.
μL serum was taken from each sample for the detection of creatinine and urea levels. Samples were added in accordance with the instructions of the kit strictly. After incubation at 37° C., the absorbance value was measured in a microplate reader, and the content levels of detection indicators in each group were calculated according to the standard curve.
The extraction of total RNA from animal tissues, cDNA synthesis and PCR amplification are as in above examples.

SMILES	Acta2 mRNA expression ([1]; 4 μmol/kg)	Col1a1 mRNA expression ([1]; 4 μmol/kg)	Tgfb1 mRNA expression ([1]; 4 μmol/kg)	ALT ([1]; 4 μmol/kg i.g.) [U/L]	AST ([1]; 4 μmol/kg i.g.) [U/L]	BUN (urea level in serum) ([2]; 4 μmol/kg i.g.)	Scr (creatinine level in serum) ([2]; 4 μmol/kg i.g.)	Col1a1 mRNA expression ([2]; 4 μmol/kg)	Havcr1 mRNA expression ([2]; 4 μmol/kg)	Il1 mRNA expression ([2]; 4 μmol/kg)	Il6 mRNA expression ([2]; 4 μmol/kg)	Ngal mRNA expression ([2]; 4 μmol/kg)	Tgfb1 mRNA expression ([2]; 4 μmol/kg)	Tnf mRNA expression ([2]; 4 μmol/kg)	α-Sma mRNA expression ([2]; 4 μmol/kg)	Acta2 mRNA expression ([1]; 0.4 μmol/kg)	Col1a1 mRNA expression ([1]; 0.4 μmol/kg)	Tgfb1 mRNA expression ([1]; 0.4 μmol/kg)	ALT ([1]; 0.4 μmol/kg i.g.) [U/L]	AST ([1]; 0.4 μmol/kg i.g.) [U/L]	other results
CN(C)C[C@@H]1C(=O)O[C@H]2[C@H]1CC[C@@]1(C)C[C@]13CC[C@@](C)(O)[C@H]23 [Compound 22]	1.85	1.16	0.92	85.02	153.34	16.74	64.94	1.18	62.86	1.06	1.55	13.05	0.98	2.31	1.11	–	–	–	–	–	–
CN(C)C[C@@H]1C(=O)O[C@H]2[C@H]1CC[C@@]1(C)C[C@]13CC[C@@](C)(O)[C@H]23 [Compound 23]	2.15	1.33	0.97	99.46	216.14	18.95	50.39	1.20	83.11	1.45	5.61	13.08	1.09	2.42	0.90	2.97	1.83	1.08	134.21	387.71	BUN (urea level in serum) ([2]; 0.4 μmol/kg i.g.): 30.08; Scr (creatinine level in serum) ([2]; 0.4 μmol/kg i.g.): 90.69; Col1a1 mRNA expression ([2]; 0.4 μmol/kg): 1.58; Havcr1 mRNA expression ([2]; 0.4 μmol/kg): 170.08; Il1 mRNA expression ([2]; 0.4 μmol/kg): 2.07; Il6 mRNA expression ([2]; 0.4 μmol/kg): 6.47; Ngal mRNA expression ([2]; 0.4 μmol/kg): 25.75; Tgfb1 mRNA expression ([2]; 0.4 μmol/kg): 1.64; Tnf mRNA expression ([2]; 0.4 μmol/kg): 2.60; α-Sma mRNA expression ([2]; 0.4 μmol/kg): 1.80
C=C1C(=O)O[C@@H]2[C@@H]3[C@]4(CC[C@@]3(C)O)C[C@]4(C)CC[C@@H]12 [Compound 1]	2.41	1.42	1.12	105.14	239.08	21.33	71.95	1.32	99.99	1.72	3.98	20.17	1.36	2.76	1.42	3.78	2.33	1.43	174.83	425.20	BUN (urea level in serum) ([2]; 0.4 μmol/kg i.g.): 31.46; Scr (creatinine level in serum) ([2]; 0.4 μmol/kg i.g.): 108.48; Col1a1 mRNA expression ([2]; 0.4 μmol/kg): 1.64; Havcr1 mRNA expression ([2]; 0.4 μmol/kg): 175.10; Il1 mRNA expression ([2]; 0.4 μmol/kg): 2.62; Il6 mRNA expression ([2]; 0.4 μmol/kg): 8.02; Ngal mRNA expression ([2]; 0.4 μmol/kg): 30.52; Tgfb1 mRNA expression ([2]; 0.4 μmol/kg): 1.96; Tnf mRNA expression ([2]; 0.4 μmol/kg): 2.89; α-Sma mRNA expression ([2]; 0.4 μmol/kg): 1.82
